Reference: patent US11278575B2, “Compositions and methods for the treatment of demyelinating conditions” (Duke University, priority 2018, dated 2022)

Legend:
DUOC-01 cells [1] = test: Stability of day 21 DUOC-01 cells incubated with HC or Dex: viability (AOPI) and total viable cell count; assay type: cell-based, human; conditions: for Averaged total viable cell numbers: DUOC-01 cells in Ringers, HC 3 mg/ml or Dex 25 ng/ml, average of six experiments
Method: FIG. 1 illustrates that HC increases the viability of DUOC-01 cells over time. Viability was measured by AOPI using the Nexcelom Cellometer Auto 2000 (n=6 samples per time point; 2-way ANOVA p<0.001 for treatment factor; Tukey's post-hoc[…]).
(§1) First, to test stability, day +21 DUOC-01 cells were harvested into ringers lactate and incubated with HC for up to 4 hours to determine whether there was any change in viability or stability.
(§2) DUOC-01 cells were cultured using standard procedures from cryopreserved and thawed cord blood units, then harvested on day 21 and re-suspended in Ringers. After initial count and viability, the cell suspension was divided into three conditions: (1) Ringer's solution, (2) 3 mg/ml HC, (3) 25 ng/ml Dex.
(§3) Based on previous stability studies, the cells were incubated for 4 hours at room temperature and characterized every hour for 4 hours. The viability of DUOC-01 cells over time was consistently greater with cells incubated with HC compared to DUOC-01 cells incubated with dexamethasone or Ringer's solution (FIG. 1).

[2] = tested on: corpus callosum of NSG mice treated with cuprizone; test: Cuprizone demyelination model, myelination score by LFB-PAS staining; assay type: in vivo; conditions: one week after injection into corpus callosum of CPZ-treated mice; 1×10^5 cells; cells incubated 2 hours in 3 mg/ml HC where HC is used
Text: Myelination score based on LFB-PAS staining of mice one week after treatment of CPZ-treated mice with, Ringer's, Ringers+HC, DUOC-01 cells, or DUOC-01 cells exposed to HC (1×10^5 cell injected). […] Two independent, blinded readers scored coded LFB-PAS stained sections at the mid-line corpus callosum area, between zero and 3. Data are presented as mean ±SEM (ANOVA for cells P<0.001; n=9-16 mice per group, *P<0.05, Tukey's post-hoc test; pooled 2 independent experiments). […] DUOC-01 cells were cultured via standard procedures from frozen cord blood units in the GMP facility and harvested on day 21. After initial count and viability, the cell suspension was split into two conditions at a concentration of 20,000 cells/μl: (1) Ringers, and (2) Ringers +3 mg/ml HC. Based on previous stability studies, the cells were incubated in HC for 2 hours at room temperature prior to injections. To determine if HC would affect the ability of DUOC-01 cells to promote remyelination, Ringer's solution or DUOC-01 cells was injected into the corpus callosum of NSG mice treated with cuprizone, as previously described (Saha et al. JCI Insight 2016). One week following treatment, brains were harvested and analysis of myelination by LFB-PAS staining was conducted.

DUOC-01 cells [3] = test: Surface marker expression of DUOC-01 cells by flow cytometry after adding HC or Dex; assay type: cell-based, human; conditions: up to 4 hours after adding HC (3 mg/ml) or Dex (25 ng/ml)
Method: DUOC-01 cells were collected 4 hours after adding HC or dexamethasone (Dex). The expression of CD45 (FIG. 2A), CD11b (FIG. 2B), Trem2 (FIG. 2C), and CD14 (FIG. 2D) were analyzed by flow cytometry (n=6 per condition).
as §1, §2, §3

Row | SMILES | Averaged total viable cell numbers (DUOC-01 cells [1]; 1 hr at room temperature) | Averaged total viable cell numbers (DUOC-01 cells [1]; 2 hr at room temperature) | Averaged total viable cell numbers (DUOC-01 cells [1]; 3 hr at room temperature) | Averaged total viable cell numbers (DUOC-01 cells [1]; 4 hr at room temperature) | Remyelination (myelination score, LFB-PAS, mid-line corpus callosum) [2] | Viability of DUOC-01 cells over time (AOPI) (DUOC-01 cells [1]; up to 4 hours, 3 mg/ml HC, compared with dexamethasone or Ringer's solution) | Expression level of DUOC-01 surface markers (CD45, CD14, TREM2, CD11b) (DUOC-01 cells [3])
1 | C[C@@H]1C[C@H]2[C@@H]3CCC4=CC(=O)C=C[C@]4(C)[C@@]3(F)[C@@H](O)C[C@]2(C)[C@@]1(O)C(=O)CO [Dexamethazone, dexamethasone] | 923,563 | 813,750 | 821,250 | 706,875 |  |  | 
2 | C[C@]12CCC(=O)C=C1CC[C@@H]1[C@@H]2[C@@H](O)C[C@@]2(C)[C@H]1CC[C@]2(O)C(=O)CO [HC, hydrocortisone] | 959,688 | 821,667 | 910,604 | 742,000 | did not inhibit the ability of DUOC-01 cells to promote remyelination | improved the viability | did not change the expression level
